# Values quoted from earlier work, collected in US5629431A, “Inhibitors of retroviral proteases” (Hoechst Aktiengesellschaft, priority 1989, dated 1997).
# Square brackets hold non-standard residues; d marks the D form. Peptide text beside a SMILES is read from it. * marks the point of attachment. Sta = CC(C)C[C@H](N)[C@@H](O)CC(=O)O; Isovaleryl = CC(C)CC(=O)*
# Tests used:
# [1] = test system: HIV protease; conditions: literature value (Katoh et al., Nature 329, 1987); read-out: IC50 against HIV protease
# [2] = test system: formation of the nuclear protein p24 and activity of reverse transcriptase; conditions: high doses; in the biosynthesis (v. d. Helm et al., FEBS Lett. 247, 1989)
structure (smiles),measurement,setting,value
CC(C)CC(=O)N[C@H](C(=O)N[C@H](C(=O)N[C@@H](CC(C)C)[C@@H](O)CC(=O)N[C@@H](C)C(=O)N[C@@H](CC(C)C)[C@@H](O)CC(=O)O)C(C)C)C(C)C [pepstatin A] (Isovaleryl-VV[Sta]A[Sta]-OH),IC50,[1],[…]
same,activity of reverse transcriptase,[2],reduction
same,formation of the nuclear protein p24,[2],reduction
